Measurements from patent US20260285850A1, “SUBSTITUTED OXAZOLIDINONES AND IMIDAZOLINONES AS HERBICIDES” (FMC CORPORATION, priority 2023, published 2026).

What was measured:
Type in all cases: in vivo
[1] = tested on: green foxtail (Setaria viridis); experiment: Test A preemergence soil spray, visual injury rating 0-100; settings: 10 days, 0 = no effect, 100 = complete control
Procedure, shortened: (§1)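 Compound in a non-phytotoxic, surfactant-containing solvent is applied either as a directed soil spray before seedlings emerge or onto emerged plants 2-10 cm tall; pots hold a loam-sand blend. Plants grow 10 days under greenhouse conditions and are rated by eye against untreated controls (0 no effect, 100 complete control).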

corn (Zea mays) [2] = experiment: as above; settings: 10 days, 0 = no effect, 100 = complete control
Procedure, shortened: as §1

kochia (Bassia scoparia) [3] = experiment: as above; settings: 10 days, 0 = no effect, 100 = complete control
Procedure, shortened: as §1

[4] = tested on: wheat (Triticum aestivum); experiment: as above; settings: 10 days, 0 = no effect, 100 = complete control
Procedure, shortened: as §1

soybean (Glycine max) [5] = experiment: as above; settings: 10 days, 0 = no effect, 100 = complete control
Procedure, shortened: as §1

[6] = tested on: barnyardgrass (Echinochloa crus-galli); experiment: as above; settings: 10 days, 0 = no effect, 100 = complete control
Procedure, shortened: as §1

[7] = tested on: blackgrass (Alopecurus myosuroides); experiment: as above; settings: 10 days, 0 = no effect, 100 = complete control
Procedure, shortened: as §1

[8] = tested on: oat, wild (wild oat, Avena fatua); experiment: as above; settings: 10 days, 0 = no effect, 100 = complete control
Procedure, shortened: as §1

[9] = tested on: ryegrass, Italian (italian ryegrass, Lolium multiflorum); experiment: as above; settings: 10 days, 0 = no effect, 100 = complete control
Procedure, shortened: as §1

[10] = tested on: palmer (palmer amaranth, palmer pigweed, Amaranthus palmeri); experiment: as above; settings: 10 days, 0 = no effect, 100 = complete control
Procedure, shortened: as §1

[11] = tested on: ragweed (common ragweed, Ambrosia artemisiifolia); experiment: as above; settings: 10 days, 0 = no effect, 100 = complete control
Procedure, shortened: as §1

[12] = tested on: green foxtail (Setaria viridis); experiment: Test A postemergence application, visual injury rating 0-100; settings: Postemergence
Procedure, shortened: as §1

corn (Zea mays) [13] = experiment: as above; settings: Postemergence
Procedure, shortened: as §1

kochia (Bassia scoparia) [14] = experiment: as above; settings: Postemergence
Procedure, shortened: as §1

[15] = tested on: wheat (Triticum aestivum); experiment: as above; settings: Postemergence
Procedure, shortened: as §1

soybean (Glycine max) [16] = experiment: as above; settings: Postemergence
Procedure, shortened: as §1

[17] = tested on: barnyardgrass (Echinochloa crus-galli); experiment: as above; settings: Postemergence
Procedure, shortened: as §1

[18] = tested on: blackgrass (Alopecurus myosuroides); experiment: as above; settings: Postemergence
Procedure, shortened: as §1

[19] = tested on: oat, wild (wild oat, Avena fatua); experiment: as above; settings: Postemergence
Procedure, shortened: as §1

[20] = tested on: horseweed (Erigeron canadensis); experiment: as above; settings: Postemergence
Procedure, shortened: as §1

[21] = tested on: ryegrass, Italian (italian ryegrass, Lolium multiflorum); experiment: as above; settings: Postemergence
Procedure, shortened: as §1

[22] = tested on: palmer (palmer amaranth, palmer pigweed, Amaranthus palmeri); experiment: as above; settings: Postemergence
Procedure, shortened: as §1

[23] = tested on: ragweed (common ragweed, Ambrosia artemisiifolia); experiment: as above; settings: Postemergence
Procedure, shortened: as §1

[24] = tested on: galium (catchweed bedstraw, Galium aparine); experiment: as above; settings: Postemergence
Procedure, shortened: as §1

[25] = tested on: barnyardgrass (Echinochloa crusgalli); experiment: Test B flooded paddy test, visual plant response rating 0-100; settings: 250 g ai/ha, Flood, applied to paddy water, evaluated after 13 days
Procedure, shortened: (§2)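 Treatment occurs at the 2-leaf stage by adding compound to floodwater standing 3 cm above the soil, a level kept for the whole test. Plants stay in the greenhouse 13 days before visual comparison with controls.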

[26] = tested on: sedge, umbrella (small-flower umbrella sedge, Cyperus difformis); experiment: as above; settings: 250 g ai/ha, Flood, applied to paddy water, evaluated after 13 days
Procedure, shortened: as §2

rice (Oryza sativa) = experiment: as above; settings: 250 g ai/ha, Flood, applied to paddy water, evaluated after 13 days
Procedure, shortened: as §2

[27] = tested on: ducksalad (Heteranthera limosa); experiment: as above; settings: 250 g ai/ha, Flood, applied to paddy water, evaluated after 13 days
Procedure, shortened: as §2

[28] = 31 g ai/ha, greenhouse 10 days, 0 no effect, 100 complete control
[29] = 125 g ai/ha, 10 days, 0 is no effect, 100 is complete control

With `COC(=O)COC(=O)C1C=CC(NC(=O)C2(C)CN(c3cc(Cl)cc(Cl)c3)C(=O)O2)C1` (stereo not shown) [Compound 65] the “Foxtail, Green plant response rating (0-100)” value ([1]; 31 g ai/ha) was 90, the “Foxtail, Green plant response rating (0 to 100 scale)” value (“Foxtail … (0 to 100 scale)” for short) ([1]; 125 g ai/ha) was 90 and the “Corn plant response rating (0-100)” value (corn (Zea mays) [2]; 31 g ai/ha) was 0. The “Corn plant response rating (0 to 100 scale)” value (corn (Zea mays) [2]; 125 g ai/ha) was 70, the “Kochia plant response rating (0-100)” value (kochia (Bassia scoparia) [3]; 31 g ai/ha) was 10 and the “Kochia plant response rating (0 to 100 scale)” value (kochia (Bassia scoparia) [3]; 125 g ai/ha) was 10. For the same molecule, the “Wheat plant response rating (0-100)” value ([4]; 31 g ai/ha) was 50, the “Wheat plant response rating (0 to 100 scale)” value ([4]; 125 g ai/ha) was 90 and the “Soybean plant response rating (0-100)” value (soybean (Glycine max) [5]; 31 g ai/ha) was 10. The “Soybean plant response rating (0 to 100 scale)” value (soybean (Glycine max) [5]; 125 g ai/ha) was 70, the “Barnyardgrass plant response rating (0-100)” value ([6]; 31 g ai/ha) was 90 and the “Barnyardgrass plant response rating (0 to 100 scale)” value ([6]; 125 g ai/ha) was 90. The “Blackgrass plant response rating (0-100)” value ([7]; 31 g ai/ha) was 50, the “Blackgrass plant response rating (0 to 100 scale)” value ([7]; 125 g ai/ha) was 70 and the “Oat, Wild plant response rating (0-100)” value ([8]; 31 g ai/ha) was 20. The “Oat, Wild plant response rating (0 to 100 scale)” value (“Oat … (0 to 100 scale)” for short) ([8]; 125 g ai/ha) was 80, the “Ryegrass, Italian plant response rating (0-100)” value ([9]; 31 g ai/ha) was 70 and the “Ryegrass, Italian plant response rating (0 to 100 scale)” value (shortened to “Ryegrass … (0 to 100 scale)”) ([9]; 125 g ai/ha) was 90. The “Amaranth, Palmer plant response rating (0-100)” value ([10]; 31 g ai/ha) was 100, the “Amaranth, Palmer plant response rating (0 to 100 scale)” value ([10]; 125 g ai/ha) was 100 and the “Ragweed plant response rating (0-100)” value ([11]; 31 g ai/ha) was 10. The “Ragweed plant response rating (0 to 100 scale)” value ([11]; 125 g ai/ha) was 70, the “Foxtail … (0 to 100 scale)” value [12, 28] was 90 and the “Foxtail … (0 to 100 scale)” value [12, 29] was 90. For the same molecule, the “Corn plant response rating (0 to 100 scale)” value (corn (Zea mays) [13]; [28]) was 100, the “Corn plant response rating (0 to 100 scale)” value (corn (Zea mays) [13]; [29]) was 100 and the “Kochia plant response rating (0 to 100 scale)” value (kochia (Bassia scoparia) [14]; [28]) was 80. The “Kochia plant response rating (0 to 100 scale)” value (kochia (Bassia scoparia) [14]; [29]) was 90, the “Wheat plant response rating (0 to 100 scale)” value [15, 28] was 90 and the “Wheat plant response rating (0 to 100 scale)” value [15, 29] was 90. For the same molecule, the “Soybean plant response rating (0 to 100 scale)” value (soybean (Glycine max) [16]; [28]) was 80, the “Soybean plant response rating (0 to 100 scale)” value (soybean (Glycine max) [16]; [29]) was 80 and the “Barnyardgrass plant response rating (0 to 100 scale)” value [17, 28] was 100. The “Barnyardgrass plant response rating (0 to 100 scale)” value [17, 29] was 100, the “Blackgrass plant response rating (0 to 100 scale)” value [18, 28] was 90 and the “Blackgrass plant response rating (0 to 100 scale)” value [18, 29] was 100. The “Oat … (0 to 100 scale)” value [19, 28] was 90, the “Oat … (0 to 100 scale)” value [19, 29] was 90 and the “Horseweed plant response rating (0 to 100 scale)” value [20, 28] was 70. The “Horseweed plant response rating (0 to 100 scale)” value [20, 29] was 70, the “Ryegrass … (0 to 100 scale)” value [21, 28] was 100 and the “Ryegrass … (0 to 100 scale)” value [21, 29] was 100. The “Amaranth, Palmer / Pigweed, Palmer plant response rating (0 to 100 scale)” value [22, 28] was 90, the “Amaranth, Palmer / Pigweed, Palmer plant response rating (0 to 100 scale)” value [22, 29] was 90 and the “Ragweed plant response rating (0 to 100 scale)” value [23, 28] was 80. The “Ragweed plant response rating (0 to 100 scale)” value [23, 29] was 80, the “Galium plant response rating (0 to 100 scale)” value [24, 28] was 80 and the “Galium plant response rating (0 to 100 scale)” value [24, 29] was 90. For the same molecule, the “Plant response rating, Barnyardgrass (0 to 100 scale, 0 is no effect and 100 is complete control)” value [25] was 75, the “Plant response rating, Sedge, Umbrella (0 to 100 scale, 0 is no effect and 100 is complete control)” value [26] was 100 and the “Plant response rating, Rice (0 to 100 scale, 0 is no effect and 100 is complete control)” value (rice (Oryza sativa)) was 60. For the same molecule, the “Plant response rating, Ducksalad (0 to 100 scale, 0 is no effect and 100 is complete control)” value [27] was 95.
